The text below walks through data of ChEMBL document CHEMBL3621087, “Adamantane amine derivatives as dual acting NMDA receptor and voltage-gated calcium channel inhibitors for neuroprotection” (Medchemcomm, 2014).

Active and inactive are the calls of the source. No cut-off for these calls is given here.

The species entered for experiment [1] is Mus musculus. The experiment in a line: Inhibition of NMDA receptor in mouse synaptoneurosomes assessed as reduction of NMDA/glycine-induced calcium influx at 100 uM after 30 mins using Fura-2 AM by fluorescence assay relative to control.
The species entered for experiment [2] is Mus musculus. The experiment in a line: Inhibition of voltage-gated calcium channel in mouse synaptoneurosomes assessed as reduction of KCl-induced calcium influx at 100 uM after 30 mins using Fura-2 AM by fluorescence assay relative to control.

In general, inhibition refers to how much of the control response was suppressed. In the case of `CC12CC3CC(C)(C1)CC(N)(C3)C2`, the inhibition in the experiment listed under Mus musculus [1] came to 92.5%; in the experiment listed under Mus musculus [2] it was 5.2%.
As for `c1ccc(CNC23OC4C5C6CC(C7C6C4C72)C53)cc1` (stereo not given), the inhibition in the experiment listed under Mus musculus [1] came to 22.2%; in the experiment listed under Mus musculus [2], 38.4%.
On the same counts, the results for `C[C@]12N[C@H](Cc3ccccc31)c1ccccc12` are 100% and “inactive”.
On the same counts, the results for `Nc1ccccc1CNC12CC3CC(CC(C3)C1)C2` are 31.3% and 37.1%.
With `O=[N+]([O-])c1ccc(CNC23CC4CC(CC(C4)C2)C3)cc1`, the inhibition came to 74.8% in the experiment filed under Mus musculus [1] and 85.7% in the experiment listed under Mus musculus [2].
On the same counts, the results for `O=[N+]([O-])c1ccccc1CNC12CC3CC(CC(C3)C1)C2` are 60.6% and 49.2%.
`Nc1ccc(CNC23CC4CC(CC(C4)C2)C3)cc1`: the inhibition in the experiment listed under Mus musculus [1] stood at 50.4%; in the experiment listed under Mus musculus [2], 49.5%.
The matching figures for `O=[N+]([O-])c1cccc(CNC23CC4CC(CC(C4)C2)C3)c1`: 36.6% and 14.3%.
On the same counts, the results for `NC12CC3CC(CC(C3)C1)C2` are 84.6% and 2.76%.
Turning to `Nc1cccc(CNC23CC4CC(CC(C4)C2)C3)c1`, the inhibition in the experiment filed under Mus musculus [1] was 48.3%; in the experiment filed under Mus musculus [2] it was 30%.
Consider `COc1ccc(CNC23CC4CC(CC(C4)C2)C3)cc1`, for which the inhibition in the experiment filed under Mus musculus [1] was found to be 79.2%; in the experiment filed under Mus musculus [2], 71.2%.
As for `COCCOC(=O)C1=C(C)NC(C)=C(C(=O)OC(C)C)C1c1cccc([N+](=O)[O-])c1` (stereo not given), the inhibition entry in the experiment filed under Mus musculus [1] is “inactive”. Further, the inhibition in the experiment filed under Mus musculus [2] stood at 100%.
Turning to `c1ccc(CCNC23CC4CC(CC(C4)C2)C3)cc1`, the inhibition was determined as 89.5% in the experiment listed under Mus musculus [1] and 42% in the experiment listed under Mus musculus [2].
On the same counts, the results for `c1ccc(CNC23CC4CC(CC(C4)C2)C3)cc1` are 66.7% and 39.6%.
On the same counts, the results for `COc1cccc(CNC23CC4CC(CC(C4)C2)C3)c1` are 70.2% and 44.7%.
